Measurements reported in US9328386B2, “Markers for susceptibility to an inhibitor of an Src-family kinase” (Evotec (München) GmbH, priority 2011, dated 2016).

Key:
[1] = tested on: H1568 NSCLC cell line; test: Cellular growth inhibition (CellTiter Glo viability assay); format: cell-based; details: Homo sapiens, NCI-H1568, 96 h; read-out: GI50 this paper
[2] = tested on: H2887 NSCLC cell line; test: as above; format: cell-based; details: Homo sapiens, NCI-H2887, 96 h; read-out: GI50 this paper
[3] = tested on: BT-20 breast cancer cell line; test: as above; format: cell-based; details: Homo sapiens, BT-20, 96 h; read-out: GI50 this paper
[4] = tested on: BT-549 breast cancer cell line; test: as above; format: cell-based; details: Homo sapiens, BT-549, 96 h; read-out: GI50 this paper
[5] = tested on: MDA-MB-468 breast cancer cell line; test: as above; format: cell-based; details: Homo sapiens, MDA-MB-468, 96 h; read-out: GI50 this paper
[6] = tested on: H1666 NSCLC cell line; details: dasatinib, cited from earlier work
[7] = tested on: H2172 NSCLC cell line; details: dasatinib, cited from earlier work
[8] = tested on: HCC78 NSCLC cell line; details: dasatinib, cited from earlier work
[9] = target: T1, EPHA2 (Homo sapiens, UniProt P29317); test: KinAffinity target profiling; format: binding; details: PC9 cell extract, read-out: KD_free
T1 construct: PC9 cells were lysed in buffer containing 20 mM HEPES pH 7.5; endogenous in cells; host or cells: PC9 cell extract
Protocol: (§1) For in vitro association experiments 4×10^8 PC9 cells were lysed in buffer containing 20 mM HEPES pH 7.5, 400 mM NaCl. 0.25% Triton X-100, 1 mM DTT, 1.5 mM MgCl2, 0.5 mM ZnCl2, 0.5 mM EDTA, 0.5 mM EGTA, 1600 U/ml Benzonase plus additives (10 μg/ml aprotinin, 10 μg/ml leupeptin, 1 mM PMSF, 1 mM Na3VO4, 10 mM NaF). After centrifugation the supernatant was adjusted to 1 M NaCl, filtered through a 0.45 μm celluloseacetate filter and subjected to KinAffinity™ beads representing several different broad-spectrum kinase inhibitors immobilized on Sepharose beads. For each in vitro association experiment 750 μl cell extract (4 mg/ml) were incubated with 30 μl KinAffinity™ beads for 2.5 h at 4° C. […] Alternatively, the inhibitor (3 nM, 30 nM, 100 nM, 300 nM, 3 μM) and KinAffinity™ beads were added simultaneously to the cell extract. […] The extracted peptides were derivatized for quantitative mass spectrometry using the TMT 6-plex reagent according to the manufactures instructions and were subsequently combined for mass spectrometric analysis.
(§2) Mass spectrometric analysis of the labeled and combined peptide fractions was carried out by on-line nanoLC-MS/MS. The samples were loaded directly by an Agilent 1200 nanoflow system (Agilent Technologies) on a 15 cm fused silica emitter (New Objective) packed in-house with reversed phase material (Reprusil-Pur C18-AQ, 3 μm, Dr. Maisch GmbH) at a flow of […]. The bound peptides were eluted by a gradient from 2% to 40% solvent B (80% ACN, 0.5% HOAc) at a flow of […] and sprayed directly into an LTQ-Orbitrap XL mass spectrometer (Thermo Fischer Scientific) at a spray voltage of 2 kV applying a nano electrospray ion source (ProxeonBiosystems). […] The resulting fragmentation spectra were also recorded in the linear ion trap.
(§3) Regarding the search parameters, the minimal peptide length was set to 6 amino acids, trypsin was selected as proteolytic enzyme and maximally 2 missed cleavage sites were allowed. […] The intensities of the TMT reporter ions were read from the msm files. […]

[10] = target: T2, MLTK (Homo sapiens, UniProt Q9NYL2); test: KinAffinity target profiling; format: binding; details: PC9 cell extract, read-out: KD_free
T2 construct: endogenous in cells; host or cells: PC9 cells (lysate)
Protocol: as §1, §2, §3

[11] = target: T3, PTK6 (Homo sapiens, UniProt Q13882); test: KinAffinity target profiling; format: binding; details: PC9 cell extract, read-out: KD_free
T3 construct: PC9 cells were lysed in buffer; endogenous in cells; host or cells: PC9 (NSCLC) cell extract
Protocol: as §1, §2, §3

[12] = target: MAP2K1 (Homo sapiens, UniProt Q02750); test: biochemical
Protocol: (§4) For in vitro association experiments 4×10^8 PC9 cells were lysed in buffer containing 20 mM HEPES pH 7.5, 400 mM NaCl. 0.25% Triton X-100, 1 mM DTT, 1.5 mM MgCl2, 0.5 mM ZnCl2, 0.5 mM EDTA, 0.5 mM EGTA, 1600 U/ml Benzonase plus additives (10 μg/ml aprotinin, 10 μg/ml leupeptin, 1 mM PMSF, 1 mM Na3VO4, 10 mM NaF). After centrifugation the supernatant was adjusted to 1 M NaCl, filtered through a 0.45 μm celluloseacetate filter and subjected to KinAffinity™ beads representing several different broad-spectrum kinase inhibitors immobilized on Sepharose beads. For each in vitro association experiment 750 μl cell extract (4 mg/ml) were incubated with 30 μl KinAffinity™ beads for 2.5 h at 4° C. […] The extracted peptides were derivatized for quantitative mass spectrometry using the TMT 6-plex reagent according to the manufactures instructions and were subsequently combined for mass spectrometric analysis.
(§5) Mass spectrometric analysis of the labeled and combined peptide fractions was carried out by on-line nanoLC-MS/MS. […] The resulting fragmentation spectra were also recorded in the linear ion trap.
as §3

[13] = target: MAP2K2 (Homo sapiens, UniProt P36507); test: biochemical
Protocol: as §4, §5, §3

[14] = Sos et al. 2009, read-out: GI50 literature

Chain of MAP2K1 (Q02750 whole entry): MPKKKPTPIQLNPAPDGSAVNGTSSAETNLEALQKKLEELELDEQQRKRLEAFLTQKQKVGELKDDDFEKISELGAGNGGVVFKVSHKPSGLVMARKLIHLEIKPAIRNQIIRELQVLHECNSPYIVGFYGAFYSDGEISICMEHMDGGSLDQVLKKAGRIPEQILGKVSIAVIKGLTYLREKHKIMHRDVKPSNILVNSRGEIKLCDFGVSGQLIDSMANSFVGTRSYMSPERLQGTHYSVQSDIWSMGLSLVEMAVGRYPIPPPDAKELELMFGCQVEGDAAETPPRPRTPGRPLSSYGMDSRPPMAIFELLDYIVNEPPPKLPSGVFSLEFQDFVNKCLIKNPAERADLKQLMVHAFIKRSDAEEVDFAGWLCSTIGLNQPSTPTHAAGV
T3 sequence (Q13882 whole entry): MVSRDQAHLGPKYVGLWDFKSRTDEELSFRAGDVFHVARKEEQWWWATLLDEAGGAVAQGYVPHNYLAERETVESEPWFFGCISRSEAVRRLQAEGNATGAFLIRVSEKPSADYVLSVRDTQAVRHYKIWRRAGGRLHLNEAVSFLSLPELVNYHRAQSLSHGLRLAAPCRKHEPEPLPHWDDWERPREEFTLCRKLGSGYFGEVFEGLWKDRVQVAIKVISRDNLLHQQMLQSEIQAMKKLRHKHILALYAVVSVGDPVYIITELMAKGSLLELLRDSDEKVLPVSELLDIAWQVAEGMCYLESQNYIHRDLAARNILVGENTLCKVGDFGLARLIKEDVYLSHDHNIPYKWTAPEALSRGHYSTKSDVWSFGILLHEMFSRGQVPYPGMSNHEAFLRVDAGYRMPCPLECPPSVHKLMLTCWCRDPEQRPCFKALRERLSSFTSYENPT
T2 sequence (Q9NYL2 whole entry): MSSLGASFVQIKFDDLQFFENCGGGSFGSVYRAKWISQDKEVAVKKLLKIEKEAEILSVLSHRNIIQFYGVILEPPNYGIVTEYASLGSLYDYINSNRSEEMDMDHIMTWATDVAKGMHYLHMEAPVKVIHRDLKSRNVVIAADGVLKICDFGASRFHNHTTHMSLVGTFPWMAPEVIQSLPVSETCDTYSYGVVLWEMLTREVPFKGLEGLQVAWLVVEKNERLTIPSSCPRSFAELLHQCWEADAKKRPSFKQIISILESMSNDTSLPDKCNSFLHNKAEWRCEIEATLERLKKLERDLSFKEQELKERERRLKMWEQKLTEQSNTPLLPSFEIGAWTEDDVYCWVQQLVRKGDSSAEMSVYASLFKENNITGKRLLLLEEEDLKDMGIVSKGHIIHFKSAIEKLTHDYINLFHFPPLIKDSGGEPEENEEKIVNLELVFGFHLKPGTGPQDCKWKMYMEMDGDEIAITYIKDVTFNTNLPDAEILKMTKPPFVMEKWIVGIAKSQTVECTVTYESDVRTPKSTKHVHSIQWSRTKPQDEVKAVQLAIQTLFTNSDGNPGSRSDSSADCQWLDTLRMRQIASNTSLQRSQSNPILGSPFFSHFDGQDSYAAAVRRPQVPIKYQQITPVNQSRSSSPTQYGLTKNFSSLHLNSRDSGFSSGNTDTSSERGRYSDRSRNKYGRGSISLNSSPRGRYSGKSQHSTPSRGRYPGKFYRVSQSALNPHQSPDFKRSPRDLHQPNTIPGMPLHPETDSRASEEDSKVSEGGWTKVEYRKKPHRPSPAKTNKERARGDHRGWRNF
Chain of MAP2K2 (P36507 whole entry): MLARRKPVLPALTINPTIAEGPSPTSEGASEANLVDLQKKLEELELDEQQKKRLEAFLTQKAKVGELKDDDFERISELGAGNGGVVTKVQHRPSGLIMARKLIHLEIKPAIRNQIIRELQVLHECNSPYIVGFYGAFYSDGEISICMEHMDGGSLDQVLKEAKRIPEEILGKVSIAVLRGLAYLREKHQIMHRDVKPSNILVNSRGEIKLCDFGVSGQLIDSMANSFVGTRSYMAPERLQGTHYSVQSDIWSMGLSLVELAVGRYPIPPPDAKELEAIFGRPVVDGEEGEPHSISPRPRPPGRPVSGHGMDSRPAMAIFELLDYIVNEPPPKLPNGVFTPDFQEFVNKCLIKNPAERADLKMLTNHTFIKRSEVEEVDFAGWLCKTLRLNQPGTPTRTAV
T1 sequence (P29317 24-976): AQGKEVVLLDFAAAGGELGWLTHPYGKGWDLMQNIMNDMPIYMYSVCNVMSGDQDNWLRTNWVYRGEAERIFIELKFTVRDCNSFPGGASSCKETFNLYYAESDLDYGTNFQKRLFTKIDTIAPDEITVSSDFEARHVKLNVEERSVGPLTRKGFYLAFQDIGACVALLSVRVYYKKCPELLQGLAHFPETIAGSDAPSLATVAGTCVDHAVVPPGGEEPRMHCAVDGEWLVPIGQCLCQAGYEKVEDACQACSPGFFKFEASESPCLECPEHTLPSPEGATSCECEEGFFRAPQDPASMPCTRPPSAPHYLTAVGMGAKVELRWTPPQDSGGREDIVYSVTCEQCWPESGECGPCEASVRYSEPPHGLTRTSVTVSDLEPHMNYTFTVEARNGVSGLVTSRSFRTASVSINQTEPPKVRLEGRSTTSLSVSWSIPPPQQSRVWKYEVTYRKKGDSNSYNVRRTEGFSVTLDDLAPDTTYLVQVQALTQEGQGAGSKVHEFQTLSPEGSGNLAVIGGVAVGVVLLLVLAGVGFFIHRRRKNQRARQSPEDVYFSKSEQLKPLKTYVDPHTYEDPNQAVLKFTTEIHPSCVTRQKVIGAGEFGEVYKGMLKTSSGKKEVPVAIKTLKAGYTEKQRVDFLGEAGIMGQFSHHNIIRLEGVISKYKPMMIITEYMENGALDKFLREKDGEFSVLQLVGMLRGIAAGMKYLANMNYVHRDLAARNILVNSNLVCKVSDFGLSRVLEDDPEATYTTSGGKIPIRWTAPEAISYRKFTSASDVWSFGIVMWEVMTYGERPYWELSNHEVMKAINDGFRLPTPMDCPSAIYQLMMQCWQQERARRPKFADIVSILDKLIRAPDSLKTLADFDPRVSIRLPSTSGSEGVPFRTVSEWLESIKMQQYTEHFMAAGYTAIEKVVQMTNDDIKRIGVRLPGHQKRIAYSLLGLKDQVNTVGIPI

Kd [9] [µM]	Kd [10] [µM]	Kd [11] [µM]	Kd [12] [µM]	Kd [13] [µM]	SMILES	GI50 [1] [µM]	GI50 [2] [µM]	GI50 [3] [µM]	GI50 [4] [µM]	GI50 [5] [µM]	GI50 [6, 14] [µM]	Sensitivity class [6] [nM]	GI50 [7, 14] [µM]	IC50 ([7]; read-out: Class) [µM]	GI50 [8, 14] [µM]	IC50 ([8]; read-out: Class) [µM]
					Cc1nc(Nc2ncc(C(=O)Nc3c(C)cccc3Cl)s2)cc(N2CCN(CCO)CC2)n1 [dasatinib, N-(2-chloro-6-methylphenyl)-2-[[6-[4-(2-hydroxyethyl)piperazin-1-yl]-2-methylpyrimidin-4-yl]amino]-1,3-thiazole-5-carboxamide]	5.44	0.176	0.497	1.71	2.8	0.175	< 1000	16.7	> 1	13.9	> 1
0.108	0.75	0.03	1.23	2.31	CN1CCN(CCOc2cc(OC3CCOCC3)c3c(Nc4c(Cl)ccc5c4OCO5)ncnc3c2)CC1 [saracatinib, N-(5-Chloro-1,3-benzodioxol-4-yl)-7-[2-(4-methyl-1-piperazinyl)ethoxy]-5-[(tetrahydro-2H-pyran-4-yl)oxy]-4-quinazolinamine]											
